Test results from patent US10369158B2, “Pharmaceutical packaging for estriol therapy” (The Regents of the University of California, priority 2014, dated 2019).

Key:
Assay type in all cases: in vivo, human
[1] = tested on: multiple sclerosis; assay: Timed 25-foot walk test; conditions: between-group difference p=0.02
Excerpt: (§1) Patients also underwent mammograms before and after the study.
Another clinical disability measure with treatment effects was the timed 25-foot walk test. This test measures how many seconds it takes to walk 25 feet, with higher scores indicating worse disability. […] This beneficial effect of estriol treatment on 25 foot walking times is consistent with the beneficial effect of estriol treatment on EDSS scores since the latter is weighted toward being an indicator of ambulation.

[2] = tested on: multiple sclerosis; assay: Paced Auditory Serial Addition Test (PASAT) cognitive disability assessment; conditions: month 12 to month 24
Excerpt: as §1
Next it was shown that the improvement in PASAT cognitive test scores was sustained when subjects were followed for the entire 24 month period, p=0.02 (FIG. 3).

[3] = tested on: multiple sclerosis; assay: Brain MRI gadolinium enhancing lesions; conditions: at month 12 compared to month 0 baseline, p=0.14
Excerpt: as §1
Brain MRI is used extensively in MS as a surrogate marker for clinical effects. Brain white matter gadolinium enhancing lesions are a biomarker for relapses.

[4] = tested on: multiple sclerosis; assay: Expanded Disability Status Scale (EDSS)
Excerpt: as §1
The Expanded Disability Status Scale (EDSS) is a standard composite disability score used in MS trials. Higher scores indicate worse disability. This composite covers a variety of disabilities (including ambulation, vision, cognition, coordination, etc.), but scoring is not linear, and the composite score is understood to be principally an indicator of the level of disability in ambulation.

[5] = Safety and tolerability in randomized, double-blind, placebo-controlled clinical trial (gynecological outcomes, mammograms)
Excerpt: as §1
Baseline characteristics were similar in both patient groups.

[6] = 24-month treatment, Copaxone with estriol or placebo

## glatiramer acetate [Copaxone® plus placebo]
[1]
  Change of walk time in timed 25-foot walk test: significantly increased
[2]
  PASAT scores after 12 months to end of study: began to show improved PASAT scores
[3]
  Reduction in number of subjects with brain MRI scans positive for enhancing lesions: 22%
[4]; 24 months (FIG. 4)
  Change in EDSS scores: no change
[4]; FIG. 4, p=0.06 estriol group, p=0.90 placebo group
  EDSS scores over 24 months, slope: −0.01
[5]; [6]
  Abnormal proliferation in uterine endometrial biopsies: no
  Breast - Fibrocystic breast disease on clinical exam: 4 subjects
  Uterine endometrial biopsies (exams): 10 exams
  Uterine endometrial thickness > 8 mm on ultrasound (subjects): 27 subjects
[5]; before and after the study
  Mammograms: No breast
[5]; women with MS, 24-month treatment, Copaxone 20 mg/day with oral estriol 8 mg/day or placebo, norethindrone 0.7 mg/day for 14 days every three months
  Uterine fibroids on ultrasound: 8 subjects
